Data: US9320723B2, “Methods of treating thyroid eye disease” (University of Rochester, priority 2010, dated 2016)
Where two headings read alike, the source gives them in different places.

Tests used:
[1] = system: human orbital fibroblasts; assay: qRT-PCR of HAS mRNA after PGD2 or BW245C; assay type: cell-based; conditions: BW245C 10 μM
Experimental: RNA was isolated from orbital fibroblasts or T cells using an RNeasy Mini kit (Qiagen). RNA was reverse transcribed to cDNA using iScript cDNA synthesis kit (Bio-Rad) and diluted 5-fold in RNase-free H2O. Forward and reverse primers for each gene are shown in Table I. RT-PCR: The PCR reaction was performed using Qiagen Fast Cycling PCR kit for 30 cycles in a Bio-Rad thermal cycler. The PCR product was visualized on a 5% acrylamide gel stained with ethidium bromide. Amplifications without reverse transcriptase were carried out as negative controls. qRT-PCR: qRT-PCR was performed in a Bio-Rad iCycler containing B-R SYBR Green SuperMix for IQ (Quanta Biosciences, Gaithersburg, Md.). Efficiency of the amplification was determined to be >90%.
Amplification of 7S ribosomal RNA was carried out for each cDNA (in triplicate) for normalization. Threshold cycle number (Ct) of amplification in each sample was determined by Bio-Rad software and the relative mRNA abundance was calculated as the Ct for amplification of a gene-specific cDNA minus average Ct for 7S, expressed as a power of 2; i.e., 2^ΔCt.

orbital fibroblasts = assay: Measurement of intracellular cAMP (TR-FRET immunoassay); assay type: cell-based, human; conditions: PGD2 5 μM, BW245C 10 μM, up to 60 minutes
Experimental: cAMP levels were quantified using a time-resolved fluorescence resonance energy transfer (TR-FRET) immunoassay from Perkin Elmer (Waltham, Mass.) according to the manufacturer's protocol. Briefly, orbital fibroblasts were detached with a non-enzymatic cell dissociation solution (Versene, Invitrogen) and re-suspended in Stimulation Buffer (pH 7.4; 1×HBSS buffer containing 5 mmol/L HEPES buffer and 0.01%-0.1% BSA) containing 0.5 mM IBMX and labeled with the Alexa Fluor® 647-labeled anti-cAMP antibody. Finally, the cells were incubated with drugs at the indicated times. Following addition of the detection buffer, the amount of cAMP signal was measured.

[2] = system: human orbital fibroblasts; assay: HA ELISA of culture medium of orbital fibroblasts treated with prostaglandins or drugs; assay type: cell-based; conditions: for HA levels after selective DP agonist: compared to untreated fibroblasts; for basal HA levels: 100 nM antagonist alone, compared with untreated; for PGD2- and PGJ2-induced HA production: 100 nM antagonist pretreatment 1 hour, PGD2 5 μM or PGJ2 2 μM
Description: Orbital fibroblasts: Primary orbital fibroblasts were isolated from TED patients undergoing orbital decompression surgery. The protocols for orbital biopsy and blood sample, described below, were approved by the Internal Review Board and informed, written consent was obtained from all patients. […] Fibroblasts were characterized by their adherent morphology, expression of vimentin and types I and III collagen and absence of CD45, factor VIII or cytokeratin. Fibroblasts were used at the earliest passage possible (between passages 4 to 10). Human T cells: Lymphocytes were isolated from 60 ml of peripheral blood obtained during orbital decompression surgery. Whole blood was separated over a Ficoll-Paque Plus Gradient (Amersham Biosciences, Piscataway, N.J.) to obtain peripheral blood mononuclear cells. T cells were enriched using CD3/CD28 T cell Expander beads (Invitogen). […] After that, 50 U/ml of recombinant interleukin-2 (rIL-2) was added to the culture and incubated for another 2-3 days. On day 5, cells were diluted to a concentration of 0.5×10^6 cells/ml in medium containing 50 U/ml rIL-2 and incubated for an additional 3-7 days. Cellular purity was assessed using an anti-CD3-PE antibody (BD Biosciences, San Jose, Calif.) and analyzed on a FACSCalibur flow cytometer (BD Biosciences).
Aliquots of culture medium were removed at indicated time points, centrifuged (5 min, 8,000×g at 4° C.) and HA levels quantified by enzyme-linked immunosorbent assay (ELISA) according to the manufacturer's protocol (R&D Systems). Briefly, samples were incubated in HA-binding protein (HABP)-coated microwells, allowing HA in samples to react with the immobilized HABP. After the removal of unbound molecules by washing, biotinylated-HABP was added to the microwells. Following a second wash, streptavidin-conjugated to horseradish peroxidase was added. After the last wash, the chromogenic substrate was added and HA levels were determined using a Varioskan Flash plate reader (Thermo Fisher Scientific, Milford, Mass.).

[3] = system: human orbital fibroblasts; conditions: previously reported (Feldon et al. 2006); cited from earlier work
[4] = system: human orbital fibroblasts; assay: Quantitation of secreted, pericellular and intracellular HA by ELISA, TGF-β1 treatment; assay type: cell-based; conditions: for cell number after treatment: cells counted in the FIG. 10 experiment; for inhibition at 10 µM: Homo sapiens, Fibroblast, 2 ng/ml TGF-β1, 24 hours
Experimental: Confluent monolayers of orbital fibroblasts were serum starved in 0.5% FBS RPMI-1640 medium for three days and pretreated with different concentrations of Pio or Rosi for 1 hour and then treated with or without 2 ng/ml TGF-β1 for 24 hours. After treatments, an aliquot of culture medium (secreted HA) was removed and centrifuged at 8,000×g at 4° C. for 5 minutes and the supernatant was saved for later analysis. The cells were washed twice with PBS and treated with 0.25% trypsin-EDTA solution (GIBCO, Invitrogen) at 37° C. for 5 minutes, the reaction was stopped by addition of culture medium and cell number was determined using a hemocytometer. The cells were then centrifuged and the supernatant was collected and incubated at 100° C. for 10 minutes to inactivate trypsin activity. This supernatant was saved for pericellular HA detection. The cell pellet was washed with PBS once and digested with 120 μg/ml proteinase K in 0.1% SDS/0.1 M Tris-HCl (pH 7.6) at 37° C. for 1 hour, and proteinase K was inactivated by incubation at 100° C. for 10 min. The cell lysate was centrifuged and supernatant analyzed for intracellular HA.
The amount of HA in each extract (secreted HA, pericellular HA and intracellular HA) was measured by ELISA based on the specific interaction of HA with HA binding protein (HABP). The HA detection kit was purchased from R&D system (Minneapolis, Minn.). Briefly, diluted samples were incubated in HABP-coated microwells, allowing HA present in samples to react with the immobilized HABP. After extensive washing, biotinylated HABP was added to the microwells to form complexes with bound HA. Following another round of washing, streptavidin conjugated horseradish peroxidase was added. After a brief incubation period and washing, chromogenic substrate was added and HA levels were determined using a Varioskan Flash plate reader (Thermo Fisher Scientific, Milford, Mass.). A fraction of the samples were pretreated with Streptomyces hyaluronidase (2 U/ml at 37° C. for 2 hour) before subjected to the ELISA assay as a negative control. Furthermore, an additional 50 ng/ml (final concentration) of free soluble HA was added to a fraction of the cell lysate samples to confirm that there are no inhibitory factors present and that the assays show the expected additivity when a known amount of exogenous HA is included.

[5] = system: primary orbital fibroblasts; assay: 15d-PGJ2 on TGF-β1 induced HA and HAS mRNA; assay type: cell-based, human; conditions: 15d-PGJ2 0.5, 1.0 or 2.0 μM
Experimental: Primary orbital fibroblasts were isolated from Graves' disease patients undergoing orbital decompression surgery. The cells were grown in RPMI 1640 media containing 10% FBS, and incubated for 24 hours either with or without 2 ng/ml TGF-β1, and 0.5 μM, 1.0 μM, or 2.0 μM 15d-PGJ2. The amount of HA in the cell culture supernatant and pericellular extraction was measured by ELISA as in the preceding Examples. […] While TGF-β normally induces both HAST and HAS2 mRNA expression, TGF-β induced HA secretion was inhibited by 15d-PGJ2 (FIG. 18).

HMC-1 cells = assay: Measurement of PGD2 produced by mast cells (PGD2-MOX EIA); assay type: cell-based, human; conditions: 10 μM A23187, 30 minutes, compared to untreated
Experimental: HMC-1 cells (1×10^6/well) were seeded into 6-well plates and cultured in IMDM medium with 5% FBS in the absence or presence of HQL-79 (H-PGDS inhibitor, 100 μM) at 37° C. for 60 minutes. The cells were then washed and resuspended in RPMI 1640 medium with 0.5% FBS. After 2 hours incubation, the cells were stimulated with 10 μM calcium ionophore A23187 for 30 minutes. The culture media were collected and PGD2 in the supernatants was quantified by PGD2-MOX EIA kits (Cayman Chemical).

[6] = system: human orbital fibroblasts; assay: Cell viability assay (XTT); assay type: cell-based; conditions: 24 hours, with or without TGF-β1
Experimental: Cell viability was assayed using the colorimetric XTT (2,3-bis-(2-methoxy-4-nitro-5-sulfophenyl)-2H-tetrazolium-5-carboxanilide) assay kit (Roche, Germany). Briefly, orbital fibroblasts were seeded in a 96-well plate and cultured with various treatments. Twenty hours after treatment, 50 μl of XTT labeling mixture was added and cells were incubated at 37° C. for 4 hours. The amount of cleaved XTT product generated by metabolically active cells was assayed by measuring absorbance using an ELISA plate reader at 480 nm with a reference wavelength at 650 nm. Cell viability results were also confirmed by Trypan blue staining.

[7] = system: human orbital fibroblasts; assay: qRT-PCR of HAS mRNA after TGF-β1 with or without Pio or Rosi; assay type: cell-based; conditions: 10 μM, 6 hours
Description: RNA was isolated from orbital fibroblast strains using the RNeasy Mini kit according to the manufacturer's protocol (Qiagen, Valencia, Calif.) and reverse transcripted to cDNA using iScript cDNA synthesis kit (Bio-Rad, Hercules, Calif.). Primers for human HAS1, 2, 3 and 7S as well as qRT-PCR method to detect relative abundance of mRNA are identified supra. Primers for human PPARγ1 (NM138711) and PPARγ 2 (NM015869) mRNA were 5′-AAAGAAGCCGA-CACTAAACC-3′ (SEQ ID NO:3) (sense), 5′-CTTCCATTACGG-AGAGATCC-3′ (SEQ ID NO:4) (antisense) and, 5′-GCGATTC-CTTCACTGATAC-3′ (SEQ ID NO:5) (sense), 5′-CTTCCATT-ACGGAGAGATCC-3′ (SEQ ID NO:6) (antisense), respectively.

For `O=C(O)CCCCCCC1C(=O)NC(=O)N1CCC(O)C1CCCCC1` (stereo not drawn) [BW245C], the “HAS3 mRNA increase” value ([1]; 6 hours) was 4.8±0.06, the “HAS1 mRNA fold increase” value ([1]; two hours, compared to vehicle) was 329±128 fold and the “HAS2 mRNA fold increase” value ([1]; two hours, compared to vehicle) was 17±0.14 fold. The “intracellular cAMP production” value (orbital fibroblasts) was “significantly increased intracellular cAMP production within 15 to 30 minutes” and the “HA levels after selective DP agonist” value [2] was “dose-dependently increased HA levels”.
For `O=C(Nc1ccccc1)c1cc([N+](=O)[O-])ccc1Cl` [GW9662], the PPARγ ligand-driven adipogenesis [3] is given as “completely inhibited” and the “effect of GW9662 on inhibition of TGF-β1 induced HA synthesis by Pio or Rosi” value ([4]; 1 μM GW9662 pretreatment 1 hour, 10 μM Pio or Rosi, 24 hours) is given as “did not significantly reduce the ability of either Pio or Rosi to inhibit TGF-β1 induced HA synthesis”.
In the case of `O=C(O)CCn1c2c(c3ccccc31)C[C@H](NS(=O)(=O)c1ccc(F)cc1)CC2` [Ramatroban], the “basal HA levels” value [2] is reported as “neither MK-0524 (MK) nor Ramatroban (RAM) influenced basal HA levels” and the “PGD2- and PGJ2-induced HA production” value ([2]; 18 hours) is reported as “unable to prevent the induction of HA by PGD2 or PGJ2”.
For `CCCCC/C=C/C=C1/C(=O)C=C[C@@H]1C/C=C\CCCC(=O)O` [15d-PGJ2, 15-deoxy-Δ12,14-Prostaglandin J2], the “TGF-β induced HAS2 mRNA expression” value ([5]; 2 ng/ml TGF-β1) was “inhibited TGF-β induced HAS2 mRNA expression”, the “TGF-β induced HAST mRNA expression” value ([5]; 2 ng/ml TGF-β1) was “enhanced TGF-β induced HAST mRNA expression” and the “TGF-β induced HA secretion” value ([5]; 2 ng/ml TGF-β1, 24 hours) was “inhibited”.
With `CNc1ccc2oc(C[C@H]3O[C@@]4(CC[C@H]3C)O[C@H]([C@H](C)C(=O)c3ccc[nH]3)[C@H](C)C[C@H]4C)nc2c1C(=O)O` [A23187] the “PGD2 production on activation” value (HMC-1 cells) was “significantly increased PGD2 production”.
For `CCCCC[C@H](O)/C=C/[C@H]1C(=O)C=C[C@@H]1C/C=C\CCCC(=O)O` [PGJ2], the “adipogenesis in human orbital fibroblasts” value [3] is listed as “induce adipogenesis”, the “concentration yielding the largest induction of HA” value ([2]; 18 hours, strains OF1 and OF2) is listed as 2 µM and the “HA synthesis (HA ELISA)” value ([2]; increasing concentrations, 18 hours, strains OF1 and OF2) is listed as “significantly increased HA synthesis by both fibroblast strains in a dose-dependant manner”.
With `CN(CCOc1ccc(CC2SC(=O)NC2=O)cc1)c1ccccn1` (stereo not drawn) [Rosi, rosiglitazone] the “cell viability (XTT)” value [6] was “no significant difference in cell viability among treatment conditions” and the “cell number after treatment” value [4] was “No significant changes in cell number”.
With `CS(=O)(=O)c1cc(F)cc2c3c(n(Cc4ccc(Cl)cc4)c12)[C@@H](CC(=O)O)CC3` [MK-0524] the “basal HA levels” value [2] was “neither MK-0524 (MK) nor Ramatroban (RAM) influenced basal HA levels” and the “PGD2- and PGJ2-induced HA production” value ([2]; 18 hours) was “completely blocked the ability of both PGD2 and PGJ2 to induce HA production”.
For `CCc1ccc(CCOc2ccc(CC3SC(=O)NC3=O)cc2)nc1` (stereo not drawn) [Pio, pioglitazone], the “cell viability (XTT)” value [6] was “no significant difference in cell viability among treatment conditions”, the “inhibition of TGF-β1 mediated HAS1 mRNA induction” value [7] was “about 50%” and the “inhibition of TGF-β1 mediated HAS2 mRNA induction” value [7] was “about 50%”. The inhibition at 10 µM ([4]; read-out: inhibition of TGF-β1 mediated pericellular accumulation of HA) was 40 ± 2.2%, the inhibition at 10 µM ([4]; read-out: inhibition of TGF-β1 mediated secretion of HA) was 52 ± 2.2% and the “cell number after treatment” value [4] was “No significant changes in cell number”.
For `CCCCCC(=O)CCC1C(=O)CC(O)C1C/C=C\CCCC(=O)O` (stereo not drawn) [DK-PGD2, 13,14-dihydro-15-keto-PGD2], the “HA levels after selective DP agonist” value [2] was “did not significantly increase HA levels”.
